Biological target: T1, human EGF-R (Homo sapiens, UniProt P00533)
T1 construct: expressed in transfected cells; host or cells: F/L-HERc cells: murine IL-3-dependent FDC-P1 cells transduced with retroviral vector LXSN carrying human EGF-R cDNA (packaging line GP+E86)
Test: Inhibition of EGF-dependent proliferation of F/L-HERc cells
Assay type: cell-based
Conditions: F/L-HERc cells (murine IL-3-dependent line expressing human EGF-R), stimulated with EGF 20 ng/ml, 48 hours, Cell Titer 96 AQueous assay
From the text: A cell line of murine origin dependent on interleukin-3-(IL-3) which was genetically modified to express functional human EGF-R was used here. The proliferation of these cells known as F/L-HERc can therefore be stimulated either by murine IL-3 or by EGF (cf. von Rüden, T. et al. in EMBO J. 7, 2749-2756 (1988) and Pierce, J. H. et al. in Science 239, 628-631 (1988)).
The starting material used for the F/L-HERc cells was the cell line FDC-P1, the production of which has been described by Dexter, T. M. et al. in J. Exp. Med. 152, 1036-1047 (1980). Alternatively, however, other growth-factor-dependent cells may also be used (cf. for example Pierce, J. H. et al. in Science 239, 628-631 (1988), Shibuya, H. et al. in Cell 70, 57-67 (1992) and Alexander, W. S. et al. in EMBO J. 10, 3683-3691 (1991)). […]
In order to determine the inhibitory activity of the compounds according to the invention the relative cell number was measured in O.D. units using the Cell Titer 96™ AQueous Non-Radioactive Cell Proliferation Assay (Promega). […]

T1 sequence (P00533 25-1210): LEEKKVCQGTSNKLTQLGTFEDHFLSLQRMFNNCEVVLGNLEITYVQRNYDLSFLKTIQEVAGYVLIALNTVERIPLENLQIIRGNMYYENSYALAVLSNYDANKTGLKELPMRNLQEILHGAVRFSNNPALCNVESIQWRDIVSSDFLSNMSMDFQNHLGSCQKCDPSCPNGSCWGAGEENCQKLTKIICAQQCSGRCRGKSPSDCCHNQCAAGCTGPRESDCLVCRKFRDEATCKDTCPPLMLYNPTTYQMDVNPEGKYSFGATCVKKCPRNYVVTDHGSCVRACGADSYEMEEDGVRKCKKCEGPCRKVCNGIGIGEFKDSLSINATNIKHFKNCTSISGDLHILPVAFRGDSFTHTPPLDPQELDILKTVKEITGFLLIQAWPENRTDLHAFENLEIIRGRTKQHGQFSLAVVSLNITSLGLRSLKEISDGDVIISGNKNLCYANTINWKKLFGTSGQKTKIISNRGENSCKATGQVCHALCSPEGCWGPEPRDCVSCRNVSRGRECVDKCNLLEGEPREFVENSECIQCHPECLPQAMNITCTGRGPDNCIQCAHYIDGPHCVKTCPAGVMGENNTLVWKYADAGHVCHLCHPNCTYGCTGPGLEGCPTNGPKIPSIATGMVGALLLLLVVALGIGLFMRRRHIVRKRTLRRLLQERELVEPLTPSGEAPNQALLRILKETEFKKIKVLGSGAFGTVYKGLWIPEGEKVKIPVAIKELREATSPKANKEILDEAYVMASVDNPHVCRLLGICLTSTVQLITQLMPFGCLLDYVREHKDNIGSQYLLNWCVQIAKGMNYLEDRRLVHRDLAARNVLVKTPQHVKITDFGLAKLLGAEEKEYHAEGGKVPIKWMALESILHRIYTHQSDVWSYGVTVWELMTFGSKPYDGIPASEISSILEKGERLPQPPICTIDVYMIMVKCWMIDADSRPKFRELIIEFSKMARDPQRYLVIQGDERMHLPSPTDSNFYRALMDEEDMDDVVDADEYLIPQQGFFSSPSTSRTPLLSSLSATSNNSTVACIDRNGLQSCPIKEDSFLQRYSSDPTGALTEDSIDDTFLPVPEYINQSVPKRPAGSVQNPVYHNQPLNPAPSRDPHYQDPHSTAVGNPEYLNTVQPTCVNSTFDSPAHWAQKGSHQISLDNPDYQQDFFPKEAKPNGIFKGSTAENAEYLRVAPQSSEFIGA

- IC50: 12 nM
Compound: C=CC(=O)Nc1cc2c(N[C@H](C)c3ccccc3)ncnc2cc1OCCN1CCN(C2COC(=O)C2)CC1 (stereo partly drawn) [1 (2), 4-[(R)-(1-phenylethyl)amino]-7-{2-[4-(2-oxo-tetrahydrofuran-4-yl)-piperazin-1-yl]-ethoxy}-6-[(vinylcarbonyl)amino]-quinazoline]
